The values that follow come from patent US10662204B2 (PFIZER INC., priority 2018, dated 2020).

Each structure is given as a SMILES string.

For test [1], the target named is T1, GDP-loaded KRAS (1-169) G12C, C51S, C80L, C118S (Homo sapiens, UniProt P01116, C118S/C51S/C80L/G12C).
T1 construct: GDP-loaded KRAS (1-169) G12C, C51S, C80L, C118S
Put plainly: Mass Spectrometry Reactivity Assay (MSRA): covalent adduct of compound and KRAS G12C, Percent Modification. It is filed as binding. The note with it: for MSRA (% modification) 10 μM 0.25 hr / MSRA (% modification) 10 μM 0.50 hr: 10 μM compound; for MSRA (% modification) 5.0 μM 0.25 hr / MSRA (% modification) 5.0 μM 0.017 hr: 5.0 μM compound. In outline: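 GDP-loaded KRAS(1-169) G12C/C51S/C80L/C118S at 5 μM in 25 mM Hepes pH 7.5, 200 mM NaCl, 5% glycerol incubated at RT with compound (typically 5 or 10 μM final, 1% DMSO). Quenched in formic acid at 1-60 min; intact-protein LC-TOF MS gives % modification = modified/(modified+unmodified).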

A further test has as its target KRAS G12C (Homo sapiens, UniProt P01116, G12C). Put plainly: Cell Activity Assay: accumulation of GDP-bound KRAS G12C in MIAPaCa-2 cells (Raf-1 RBD capture, MSD readout). Type of test: cell-based. More on the design: endogenous in cells; host or cells: MIAPaCa-2. Particulars: 6 hours, assay limit is 30.00. In outline: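 MIAPaCa-2 cells exposed 6 h at 37 °C to 3-fold compound dilutions (0.3% DMSO final), then lysed. Active GTP-KRAS captured on Raf-1 RBD-coated plates, detected with anti-pan-Ras and SULFO-TAG secondary by MSD electrochemiluminescence. Signal normalized to DMSO and maximum inhibition; IC50 from 4-parameter fit.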

The IC50 is the concentration at which inhibition is half-maximal. Low readings indicate greater potency in that assay, high ones weaker potency in that assay. `C=CC(=O)N1CCN(c2nc(OC[C@H]3COCCN3C)nc3c(Oc4c(Cl)c(F)cc5[nH]ncc45)nc(Cl)cc23)CC1` [Example 08G, 1-[4-(6-chloro-8-[(5-chloro-6-fluoro-1H-indazol-4-yl)oxy]-2-{[(3R)-4-methylmorpholin-3-yl]methoxy}pyrido[3,4-d]pyrimidin-4-yl)piperazin-1-yl]prop-2-en-1-one]: the “MSRA (% modification) 10 μM 0.25 hr” value in test [1] was 80%. Moreover, at KRAS G12C, half-maximal inhibition (IC50) was put at 0.148 µM.
For the molecule `C=CC(=O)N1CCN(c2nc(N3CC[C@H](N(C)C)C3)nc3c(Oc4c(C)ccc5[nH]ncc45)cccc23)CC1` [Example 08E], the “MSRA (% modification) 10 μM 0.50 hr” value in test [1] is 25%. For the same molecule, on KRAS G12C, the IC50 came to 10.7 µM.
In the case of `C=CC(=O)N1CCN(c2nc(OCCN(C)C)nc3c(Oc4c(Cl)c(C)cc5[nH]ncc45)nccc23)CC1` [Example 05E, 1-(4-{8-[(5-chloro-6-methyl-1H-indazol-4-yl)oxy]-2-[2-(dimethylamino)ethoxy]pyrido[3,4-d]pyrimidin-4-yl}piperazin-1-yl)prop-2-en-1-one], in test [1], the “MSRA (% modification) 10 μM 0.25 hr” value turned out to be 72% and the “MSRA (% modification) 10 μM 0.50 hr” value was found to be 76%. The molecule further gave an IC50 on KRAS G12C of 0.559 µM.
Regarding `C=CC(=O)N1CCN(c2nc(N3CC(N(C)C)C3)nc3c(Oc4c(Cl)c(C)cc5[nH]ncc45)nccc23)CC1` [Example 04E, 1-(4-{8-[(5-chloro-6-methyl-1H-indazol-4-yl)oxy]-2-[3-(dimethylamino)azetidin-1-yl]pyrido[3,4-d]pyrimidin-4-yl}piperazin-1-yl)prop-2-en-1-one], in test [1], the “MSRA (% modification) 5.0 μM 0.25 hr” value came to 71%, the “MSRA (% modification) 10 μM 0.25 hr” value came to 60% and the “MSRA (% modification) 10 μM 0.50 hr” value came to 62%. 0.585 µM corresponded to half-maximal inhibition against KRAS G12C (IC50).
Turning to `C=CC(=O)N1CCN(c2nc(OCc3cscn3)nc3c(Oc4c(C)ccc5[nH]ncc45)cccc23)CC1` [Example 23F, 1-(4-{8-[(5-methyl-1H-indazol-4-yl)oxy]-2-(1,3-thiazol-4-ylmethoxy)quinazolin-4-yl}piperazin-1-yl)prop-2-en-1-one], in test [1], the “MSRA (% modification) 5.0 μM 0.25 hr” value worked out at 55% and the “MSRA (% modification) 10 μM 0.25 hr” value worked out at 66%. The IC50 against KRAS G12C amounted to 0.944 µM.
With `C=CC(=O)N1CCN(c2nc(OC[C@H]3CCCN3C(C)=O)nc3c(Oc4c(Cl)c(F)cc5[nH]ncc45)nccc23)CC1` [Example 04J, 1-[4-(2-{[(2R)-1-acetylpyrrolidin-2-yl]methoxy}-8-[(5-chloro-6-fluoro-1H-indazol-4-yl)oxy]pyrido[3,4-d]pyrimidin-4-yl)piperazin-1-yl]prop-2-en-1-one], the “MSRA (% modification) 5.0 μM 0.25 hr” value in test [1] is on record as 64%. The molecule also displayed an IC50 against KRAS G12C of 0.989 µM.
Regarding `C=CC(=O)N1CCN(c2ncnc3c(Oc4c(Cl)c(C)cc5[nH]ncc45)nccc23)C[C@@H]1C` [Example 22A, 1-[(2S)-4-{8-[(5-chloro-6-methyl-1H-indazol-4-yl)oxy]pyrido[3,4-d]pyrimdin-4-yl}-2-methylpiperazin-1-yl]prop-2-en-1-one], the “MSRA (% modification) 10 μM 0.50 hr” value in test [1] is given as 10%. The molecule also showed an IC50 against KRAS G12C of 15.6 µM.
Take `C=CC(=O)N1CCN(c2nc(OC[C@@H]3CC(F)(F)CN3C)nc3c(Oc4c(C)ccc5[nH]ncc45)nccc23)CC1` [Example 07B, 1-[4-(2-{[(2S)-4,4-difluoro-1-methylpyrrolidin-2-yl]methoxy}-8-[(5-methyl-1H-indazol-4-yl)oxy]pyrido[3,4-d]pyrimidin-4-yl)piperazin-1-yl]prop-2-en-1-one]: the “MSRA (% modification) 10 μM 0.25 hr” value in test [1] came to 15%. On KRAS G12C, this molecule returned an IC50 of 6.18 µM.
With `C=CC(=O)N1CCN(c2ncnc3c(Oc4c(Cl)c(F)cc5[nH]ncc45)cccc23)CC1` [Example 18C, 1-(4-{8-[(5-chloro-6-fluoro-1H-indazol-4-yl)oxy]quinazolin-4-yl}piperazin-1-yl)prop-2-en-1-one], in test [1], the “MSRA (% modification) 5.0 μM 0.25 hr” value amounted to 36% and the “MSRA (% modification) 10 μM 0.50 hr” value is 50%. At KRAS G12C, this molecule returned a half-inhibitory concentration (IC50) of 1.1 µM.
`C=CC(=O)N1CCN(c2nc(NCC3CC(=O)N(C)C3)nc3c(Oc4c(C)ccc5[nH]ncc45)cccc23)CC1` (stereo not drawn) [Example 04F, 4-[({4-(4-acryloylpiperazin-1-yl)-8-[(5-methyl-1H-indazol-4-yl)oxy]quinazolin-2-yl}amino)methyl]-1-methylpyrrolidin-2-one]: the “MSRA (% modification) 10 μM 0.50 hr” value in test [1] worked out at 43%. The IC50 against KRAS G12C came out at 7.28 µM.
Consider `C=CC(=O)N1CCN(c2ncnc3c(Oc4c(C)ccc5[nH]nc(C)c45)nccc23)CC1` [Example 17A, 1-(4-{8-[(3,5-dimethyl-1H-indazol-4-yl)oxy]pyrido[3,4-d]pyrimidin-4-yl}piperazin-1-yl)prop-2-en-1-one], for which the “MSRA (% modification) 10 μM 0.50 hr” value in test [1] is 9%. The molecule also gave an IC50 against KRAS G12C of 24.1 µM.
`C=CC(=O)N1CCN(c2nc(OC[C@]3(F)CCCN(C)C3)nc3c(Oc4c(Cl)c(F)cc5[nH]ncc45)nc(Cl)cc23)CC1` [Example 25G, 1-[4-(6-chloro-8-[(5-chloro-6-fluoro-1H-indazol-4-yl)oxy]-2-{[(3S)-3-fluoro-1-methylpiperidin-3-yl]methoxy}pyrido[3,4-d]pyrimidin-4-yl)piperazin-1-yl]prop-2-en-1-one]: the “MSRA (% modification) 5.0 μM 0.017 hr” value in test [1] is given as 73%. Half-maximal inhibition against KRAS G12C (IC50) was put at 0.009 µM.
For the molecule `C=CC(=O)N1CCN(c2nc(OCCN(C)C)nc3c(Oc4c(Cl)c(C)cc5[nH]ncc45)cc(Cl)cc23)CC1` [Example 13E, 1-(4-{6-chloro-8-[(5-chloro-6-methyl-1H-indazol-4-yl)oxy]-2-[2-(dimethylamino)ethoxy]quinazolin-4-yl}piperazin-1-yl)prop-2-en-1-one], in test [1], the “MSRA (% modification) 10 μM 0.25 hr” value came to 75% and the “MSRA (% modification) 10 μM 0.50 hr” value amounted to 79%. The molecule also displayed an IC50 at KRAS G12C of 0.452 µM.
As to `C=CC(=O)N1CCN(c2ncnc3c(Oc4c(Cl)ccc5[nH]ncc45)cccc23)CC1` [Example 08C, 1-(4-{8-[(5-chloro-1H-indazol-4-yl)oxy]quinazolin-4-yl}piperazin-1-yl)prop-2-en-1-one], in test [1], the “MSRA (% modification) 10 μM 0.50 hr” value amounted to 29%. In addition, the IC50 on KRAS G12C is 2.98 µM.
Turning to `C=CC(=O)N1CCN(c2ncnc3c(Oc4c(Cl)ccc5[nH]ncc45)nc(C)cc23)CC1` [Example 05A, 1-(4-{8-[(5-chloro-1H-indazol-4-yl)oxy]-6-methylpyrido[3,4-d]pyrimidin-4-yl}piperazin-1-yl)prop-2-en-1-one], the “MSRA (% modification) 10 μM 0.50 hr” value in test [1] turned out to be 12%. At KRAS G12C, this molecule returned an IC50 of 8.41 µM.
Turning to `C=CC(=O)N1CCN(c2nc(O[C@@H]3CN(C)C[C@H]3OC)nc3c(Oc4c(Cl)ccc5[nH]ncc45)nccc23)CC1` [Example 49I], in test [1], the “MSRA (% modification) 5.0 μM 0.017 hr” value is 34%. Also, the IC50 against KRAS G12C is 0.17 µM.
Take `C=CC(=O)N1CCN(c2ncnc3c(Oc4c(Cl)c(C)cc5[nH]ncc45)nc(Cl)cc23)CC1` [Example 15A, 1-(4-{6-chloro-8-[(5-chloro-6-methyl-1H-indazol-4-yl)oxy]pyrido[3,4-d]pyrimidin-4-yl}piperazin-1-yl)prop-2-en-1-one]: the “MSRA (% modification) 10 μM 0.50 hr” value in test [1] is recorded as 67%. At KRAS G12C, this molecule yielded an IC50 of 0.468 µM.
Regarding `C=CC(=O)N1CCN(c2nc(O[C@@H]3CN(C)C[C@H]3CC)nc3c(Oc4c(Cl)c(F)cc5[nH]ncc45)nc(Cl)cc23)CC1` (racemic) [Example 28G, rac-1-[4-(6-chloro-8-[(5-chloro-6-fluoro-1H-indazol-4-yl)oxy]-2-{[(3S,4R)-4-ethyl-1-methylpyrrolidin-3-yl]oxy}pyrido[3,4-d]pyrimidin-4-yl)piperazin-1-yl]prop-2-en-1-one], the “MSRA (% modification) 5.0 μM 0.017 hr” value in test [1] amounted to 60%. At KRAS G12C, this molecule gave an IC50 of 0.037 µM.
